Laboratory results reported in US20210347775A1, “Deuterated Imidazo[4,5-c]quinolin-2-one Compounds and Their Use in Treating Cancer” (AstraZeneca AB, priority 2017, published 2021).

Columns and labels:
[1] = target: T1, ATR (Homo sapiens, UniProt Q13535); test: Assay b): ATR cellular potency (pChk1 Ser345 in HT29 cells after 4NQO); format: cell-based; settings: Table 3 comparative data; HT29 cells, pChk1 Ser345 after 4NQO; may be geometric mean of several tests; read-out: Assay b) ATR Cell IC50
T1 construct: endogenous in cells; host or cells: HT29 cells (ECACC #85061109)
T1 sequence (Q13535 whole entry): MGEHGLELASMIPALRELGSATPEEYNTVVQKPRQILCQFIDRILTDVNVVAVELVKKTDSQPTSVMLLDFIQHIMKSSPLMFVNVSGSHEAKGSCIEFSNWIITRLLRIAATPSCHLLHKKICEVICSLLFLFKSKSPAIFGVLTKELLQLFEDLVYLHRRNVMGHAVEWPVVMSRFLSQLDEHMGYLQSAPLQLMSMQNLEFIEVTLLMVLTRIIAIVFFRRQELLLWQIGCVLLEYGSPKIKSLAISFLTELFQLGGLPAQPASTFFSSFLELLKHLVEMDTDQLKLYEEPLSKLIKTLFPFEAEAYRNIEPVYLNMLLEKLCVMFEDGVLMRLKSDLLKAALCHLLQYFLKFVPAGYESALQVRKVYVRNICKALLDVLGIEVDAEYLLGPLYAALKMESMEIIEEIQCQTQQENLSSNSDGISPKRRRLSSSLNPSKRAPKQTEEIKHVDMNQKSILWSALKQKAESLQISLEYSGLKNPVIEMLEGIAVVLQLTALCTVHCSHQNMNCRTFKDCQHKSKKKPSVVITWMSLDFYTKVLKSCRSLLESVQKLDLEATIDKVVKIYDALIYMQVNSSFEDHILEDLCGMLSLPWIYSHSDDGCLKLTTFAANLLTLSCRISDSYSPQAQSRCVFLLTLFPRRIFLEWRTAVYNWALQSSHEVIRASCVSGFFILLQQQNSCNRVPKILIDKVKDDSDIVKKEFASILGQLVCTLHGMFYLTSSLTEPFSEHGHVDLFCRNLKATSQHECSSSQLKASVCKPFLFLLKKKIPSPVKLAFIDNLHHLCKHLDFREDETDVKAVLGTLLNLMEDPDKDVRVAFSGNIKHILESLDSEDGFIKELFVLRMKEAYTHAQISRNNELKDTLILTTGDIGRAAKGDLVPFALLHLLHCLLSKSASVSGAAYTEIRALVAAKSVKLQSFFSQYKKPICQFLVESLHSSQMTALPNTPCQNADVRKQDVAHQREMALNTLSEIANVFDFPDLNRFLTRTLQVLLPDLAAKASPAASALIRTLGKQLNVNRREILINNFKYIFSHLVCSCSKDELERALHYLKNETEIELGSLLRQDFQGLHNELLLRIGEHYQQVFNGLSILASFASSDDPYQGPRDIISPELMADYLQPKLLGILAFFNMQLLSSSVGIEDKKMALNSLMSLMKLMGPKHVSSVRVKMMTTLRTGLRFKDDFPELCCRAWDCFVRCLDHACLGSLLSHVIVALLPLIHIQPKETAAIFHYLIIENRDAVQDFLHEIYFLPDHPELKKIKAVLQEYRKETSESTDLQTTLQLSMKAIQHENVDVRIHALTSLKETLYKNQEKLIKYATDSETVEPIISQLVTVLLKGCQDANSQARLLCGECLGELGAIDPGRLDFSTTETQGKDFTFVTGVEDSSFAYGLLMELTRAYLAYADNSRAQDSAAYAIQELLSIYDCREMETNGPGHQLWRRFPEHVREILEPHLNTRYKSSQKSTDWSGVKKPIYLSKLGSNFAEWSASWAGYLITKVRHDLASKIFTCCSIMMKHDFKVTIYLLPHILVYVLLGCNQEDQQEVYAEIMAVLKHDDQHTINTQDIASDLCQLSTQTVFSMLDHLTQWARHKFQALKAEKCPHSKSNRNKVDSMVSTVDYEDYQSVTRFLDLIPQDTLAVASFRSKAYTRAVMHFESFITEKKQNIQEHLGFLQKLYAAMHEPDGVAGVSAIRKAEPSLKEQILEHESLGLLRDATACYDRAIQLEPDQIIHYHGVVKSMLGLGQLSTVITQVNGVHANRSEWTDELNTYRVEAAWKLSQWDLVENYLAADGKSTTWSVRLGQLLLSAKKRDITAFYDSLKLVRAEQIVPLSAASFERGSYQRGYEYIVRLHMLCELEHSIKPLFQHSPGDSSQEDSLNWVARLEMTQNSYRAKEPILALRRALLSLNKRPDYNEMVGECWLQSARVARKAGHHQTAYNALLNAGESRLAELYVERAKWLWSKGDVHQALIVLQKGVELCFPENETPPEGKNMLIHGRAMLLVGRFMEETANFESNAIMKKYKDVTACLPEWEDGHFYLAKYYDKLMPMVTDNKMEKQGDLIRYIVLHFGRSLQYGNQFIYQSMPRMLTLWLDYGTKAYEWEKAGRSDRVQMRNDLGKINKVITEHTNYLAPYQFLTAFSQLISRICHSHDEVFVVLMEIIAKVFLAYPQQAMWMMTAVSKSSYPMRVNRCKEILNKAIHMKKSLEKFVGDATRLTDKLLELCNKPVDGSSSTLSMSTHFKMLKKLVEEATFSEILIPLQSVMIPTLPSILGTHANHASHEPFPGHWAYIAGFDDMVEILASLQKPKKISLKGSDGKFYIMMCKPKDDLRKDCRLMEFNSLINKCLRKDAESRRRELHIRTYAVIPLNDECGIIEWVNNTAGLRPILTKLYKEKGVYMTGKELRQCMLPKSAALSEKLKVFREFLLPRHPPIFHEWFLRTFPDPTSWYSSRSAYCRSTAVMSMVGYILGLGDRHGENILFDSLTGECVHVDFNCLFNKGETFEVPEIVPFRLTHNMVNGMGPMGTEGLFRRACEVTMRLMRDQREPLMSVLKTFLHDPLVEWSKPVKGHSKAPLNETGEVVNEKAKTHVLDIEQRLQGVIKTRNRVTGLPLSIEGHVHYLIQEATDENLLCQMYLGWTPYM
T1 sequence (Q8WXE1 whole entry partner): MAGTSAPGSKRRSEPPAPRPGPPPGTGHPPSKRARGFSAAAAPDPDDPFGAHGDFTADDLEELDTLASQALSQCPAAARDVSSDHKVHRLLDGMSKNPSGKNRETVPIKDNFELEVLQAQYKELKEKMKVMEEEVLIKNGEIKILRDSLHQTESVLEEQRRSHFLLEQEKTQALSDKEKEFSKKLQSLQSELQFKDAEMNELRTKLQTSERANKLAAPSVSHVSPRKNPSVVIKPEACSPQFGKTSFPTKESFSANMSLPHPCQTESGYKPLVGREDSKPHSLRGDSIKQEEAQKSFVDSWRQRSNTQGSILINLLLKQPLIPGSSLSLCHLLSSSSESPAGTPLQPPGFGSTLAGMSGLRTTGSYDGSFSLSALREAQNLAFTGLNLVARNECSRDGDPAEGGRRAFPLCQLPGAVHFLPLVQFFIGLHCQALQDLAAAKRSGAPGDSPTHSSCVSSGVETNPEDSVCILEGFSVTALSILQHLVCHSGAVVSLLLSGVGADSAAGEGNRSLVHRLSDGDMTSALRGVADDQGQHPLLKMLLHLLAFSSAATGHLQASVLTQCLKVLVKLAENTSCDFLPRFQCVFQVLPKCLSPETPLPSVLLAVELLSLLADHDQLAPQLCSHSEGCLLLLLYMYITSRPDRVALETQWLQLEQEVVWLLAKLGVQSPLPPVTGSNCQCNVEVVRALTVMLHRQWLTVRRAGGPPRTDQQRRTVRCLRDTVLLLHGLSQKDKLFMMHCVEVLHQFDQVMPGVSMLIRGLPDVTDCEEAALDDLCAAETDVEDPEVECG
Experimental: (§1) The following assays were used to measure the effects of the compounds of the present invention: a) ATM cellular potency assay; b) PI3K cellular potency assay; c) mTOR cellular potency assay; d) ATR cellular potency assay. During the description of the assays, generally: • i. […] IC50 values were calculated using a smart fitting model in Genedata. […]
Phospho-Chk1 Ser 345 antibody (Cell Signalling Technology #2348) was diluted 150 fold in PBS containing 0.05% polysorbate/Tween and 15 μl was added to each well and incubated over night at r.t. […] After 2 h incubation at r.t., the plates were washed three times with 50 μl/well PBS, using a Biotek EL405 plate washer, and plates were then sealed with black plate seals until read. Plates were read using an ArrayScan VTI instrument, using an XF53 filter with 10× objective. […]

[2] = target: T2, ATM (Homo sapiens, UniProt Q13315); test: Assay a): ATM cellular potency (pATM Ser1981 in irradiated HT29 cells); format: cell-based; settings: Table 2; HT29 cells, pATM Ser1981 after X-ray irradiation; may be geometric mean of several tests; read-out: Assay a) ATM Cell IC50
T2 construct: endogenous in cells; host or cells: HT29 cells (ECACC #85061109)
Experimental: as §1
The rationale of the pATM assay is to identify inhibitors of ATM in cells. […] The fluorescence is read on the arrayscan imaging platform. […]
Phospho-ATM Ser1981 antibody (Millipore #MAB3806) was diluted 10000 fold in PBS containing 0.05% polysorbate/Tween and 3% BSA and 20 μl was added to each well and incubated over night at r.t. […] After 1 h incubation at r.t., the plates were washed three times with 50 μl/well PBS, using a Biotek EL405 plate washer, and plates were sealed and kept in PBS at 4° C. until read. Plates were read using an ArrayScan VTI instrument, using an XF53 filter with 10× objective. […]

| IC50 [1] | IC50 [2] | Compound |
| --- | --- | --- |
| 419 nM | – | Cn1c(=O)n(C2CCOCC2)c2c3cc(-c4cnn(CCCO)c4)ccc3ncc21 [CN102399218A Compound 60] |
| – | 2.5 nM | [2H]c1c(F)c(-c2ccc(OCCCN3CCCCC3)nc2)cc2c1nc([2H])c1c2n(C(C)C)c(=O)n1C [Example 1, 4,6-Dideuterio-7-fluoro-1-isopropyl-3-methyl-8-[6-[3-(1-piperidyl)propoxy]-3-pyridyl]imidazo[4,5-c]quinolin-2-one] |
